Measurements published in patent publication US20250130239A1, “PROTEIN DEGRADER” (University of Dundee, priority 2021, published 2025).

Experiments:
VHL (VCB protein) = target: T1, VHL (VCB protein) (Homo sapiens, UniProt P40337); assay: Fluorescence polarization competitive binding assay, binary binding; conditions: compound alone; displacement of HIF-1a peptide probe; read-out: binary affinity to VHL Kd
T1 construct: N-terminally Hiss-tagged VHL (54-213); His6 (N, cleaved yes); made in house; host or cells: E. coli
Experimental: Protein Expression and Purification. […] The complex was further purified by anion exchange followed by gel filtration chromatography.
Fluorescence Polarization Binding Assay. […] All components were dissolved from stock solutions using 100 mM Bis-Tris propane, 100 mM NaCl, 1 mM DTT, pH 7.0, to yield a final assay volume of 15 μL. DMSO was added as appropriate to ensure a final concentration of 2% v/v. […] Percentage displacement values were obtained by normalization of controls were plotted against Log[Compound]. IC50 values were determined for each titration using nonlinear regression analysis with Prism (v. 9.1.0, GraphPad). […] Cooperativity values (a) for each PROTAC were calculated using the ratio: α=binary Kd (−bromodomain)/ternary Kd (+bromodomain).

22RV1 cells = assay: CellTiter-Glo cell viability assay, 22RV1; type: cell-based, human; conditions: up to 10 μM; 48 h
Experimental: Cell Viability Assay. MV-4-11 cells were plated at a density of 2×10^4 cell per well of a 96 well white-bottom plate, and left to grow overnight in 50 μl of IMDM (Invitrogen, arlsebad, CA, USA) supplemented with 10% (v/v) Fetal bovine serum (FBS) (Thermo Fisher, Waltham, MA, USA) and 1% (v/v) penicillin/streptomycin (pen/strep) (#15140122, Thermo Fisher, Waltham, MA, USA) at 37° C., 5% CO2, and 95% humidity. […] These cells were then left to incubate at 37° C., 5% CO2, and 95% humidity for one day prior to undergoing spectrophotometric analysis. 22RV1 cells were plated at a density of 2×10^4 cell per well of a 96 well white-bottom plate, and left to grow overnight in 100 μL of RPMI-1640 (Invitrogen, Carlsebad, CA, USA) supplemented with 10% (v/v) fetal bovine serum (FBS) (Thermo Fisher, Waltham, MA, USA) and 1% (v/v) penicillin/streptomycin (pen/strep) (#15140122, Thermo Fisher, Waltham, MA, USA) at 37° C., 5% CO2, and 95% humidity. […] Plates were subjected to 2 mins on an orbital shaker to encourage lysis and left for a further 5 mins to reach peak luminescence. Luminescence was then recorded on a BMG Labtech PHERAstar luminescence plate reader with recommended settings. Data extracted from this analysis was analysed with Graphpad Prism (v. 8.2.0, GraphPad) and normalized to the DMSO vehicle control. […]

[1] = tested on: BromoTag-protein conjugates; assay: Degradation of a variety of BromoTag'ed target proteins (summary); type: cell-based; conditions: treatment window of 100 nM-1 nM
Excerpt: Degradation of a variety of target proteins. […] We performed CRISPR knock-in of the BromoTag, as described, into the endogenous loci of five additional proteins. […] The target proteins of Table 6 are all different, are all known to have different cellular roles and function, intracellular expression, and distinctive turnover rates within cells.

`CC[C@@H](C(=O)OCCOCCOCCOCC(=O)N[C@H](C(=O)N1C[C@H](O)C[C@H]1C(=O)NCc1ccc(-c2scnc2C)cc1)C(C)(C)C)[C@@H]1N=C(c2ccc(Cl)cc2)c2c(sc(C)c2C)-n2c(C)nnc21` (single isomer, unassigned) [AGB1 (46)] was tested, and the Kd (VHL (VCB protein)) was 125 nM, the cytotoxicity (22RV1 cells) was “lack of cytotoxicity” and the “loss of total target protein” value [1] was “greater than 95%”.
